Assays:
[1] = biological target: human MCH-1 receptor (Homo sapiens (Human), UniProt Q99705); assay: Binding Assay for Human Melanin-Concentrating Hormone (MCH-1) Receptor (radioligand displacement, CHO-K1 membranes); details: membranes from CHO-K1 cells expressing human MCH1 receptor; [3H]-labeled radioligand; Ki from IC50 by Cheng Prusoff; read-out: MCH-1 Ki
Experimental: Evaluation of the affinity of compounds for the human MCH-1 receptor was accomplished using 4-(3,4,5-tritritiumbenzyloxy)-1-(1-(2-(pyrrolidin-1-yl)ethyl)-1H-indazol-5-yl)pyridin-2(1H)-one and membranes prepared from stable CHO-K1 cells expressing the human MCH1 receptor obtained from Euroscreen (Batch 1138). Cell membrane homogenates (8.92 μg protein) were incubated for 60 min at 25° C. with […] of the [^3H]-labeled compound in the absence or presence of the test compound in 50 mM Tris-HCl buffer, pH 7.4. Nonspecific binding was determined in the presence of 50 μM 1-(5-(4-cyanophenyl)bicyclo[3.1.0]hexan-2-yl)-3-(4-fluoro-3-(trifluoromethyl)phenyl)-1-(3-(4-methylpiperazin-1-yl)propyl)urea. Following incubation, the samples were filtered rapidly under vacuum through Skatron 11731 filters, pre-soaked in 0.5% polyethylenimine, and washed with ice-cold 50 mM Tris-HCl buffer, pH 7.4, (wash setting 9,9,0) using a Skatron cell harvester. The filters were counted for radioactivity in a liquid scintillation counter (Tri-Carb 2100TR, Packard) using a scintillation cocktail (Ultima Gold MV, Perkin Elmer).
The results are expressed as a percent inhibition of the control radioligand specific binding. The IC50 value (concentration causing a half-maximal inhibition of control specific binding) and Hill coefficient (nH) were determined by non-linear regression analysis of the competition curve using Hill equation curve fitting. The inhibition constant (Ki) was calculated from the Cheng Prusoff equation: (Ki=IC50/(1+(L/KD)), where L=concentration of radioligand in the assay, and KD=affinity of the radioligand for the receptor.

Chain of human MCH-1 receptor (Q99705 whole entry): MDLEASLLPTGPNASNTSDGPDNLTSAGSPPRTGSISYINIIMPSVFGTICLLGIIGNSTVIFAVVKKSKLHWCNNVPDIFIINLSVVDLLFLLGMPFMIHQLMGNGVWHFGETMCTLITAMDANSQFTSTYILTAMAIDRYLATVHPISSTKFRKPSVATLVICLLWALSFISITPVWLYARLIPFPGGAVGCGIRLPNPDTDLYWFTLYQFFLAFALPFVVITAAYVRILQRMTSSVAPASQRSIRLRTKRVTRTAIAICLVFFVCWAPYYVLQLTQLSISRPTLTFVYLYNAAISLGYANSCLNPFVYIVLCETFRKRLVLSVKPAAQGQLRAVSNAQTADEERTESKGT

SMILES	Ki [1] [nM]	melting point [°C]
Cc1ccc(COc2cnn(-c3ccc4c5c(n(C)c4c3)CC3CCCC5N3)c(=O)c2)cn1.Cl (stereo not drawn) [Example 18, 2-(5-Methyl-6,7,8,9,10,11-hexahydro-7,11-imino-5H-cyclooct[b]indol-3-yl)-5-((6-methylpyridin-3-yl)methoxy)pyridazin-3(2H)-one hydrochloride]	73	190 to 200
Cl.Cn1c2c(c3ccc(-n4ccc(OCc5ccc(C(F)(F)F)nc5)cc4=O)cc31)C1CCCC(C2)N1 (stereo not drawn) [Example 19, 1-(5-Methyl-6,7,8,9,10,11-hexahydro-7,11-imino-5H-cyclooct[b]indol-3-yl)-4-((6-(trifluoromethyl)pyridin-3-yl)methoxy)pyridin-2 (1H)-one hydrochloride]	13	240 to 250
Cl.O=c1cc(OCc2ccccn2)ccn1-c1ccc2c3c([nH]c2c1)CC1CCC3N1 (stereo not drawn) [Example 22, 1-(5,6,7,8,9,10-Hexahydro-7,10-iminocyclohept[b]indol-3-yl)-4-((pyridin-2-yl)methoxy)pyridin-2(1H)-one hydrochloride]	25	220 to 230
Cl.Cn1c2c(c3ccc(-n4ccc(OCc5ccccn5)cc4=O)cc31)C1CCC(C2)N1 (stereo not drawn) [Example 23, 1-(5-Methyl-6,7,8,9,10-hexahydro-7,10-iminocyclohept[b]indol-3-yl)-4-((pyridin-2-yl)methoxy)pyridin-2(1H)-one hydrochloride]	17	175 to 195
CN1C2CCC1c1c(n(C)c3cc(-n4ccc(OCc5ccccc5)cc4=O)ccc13)C2.Cl (stereo not drawn) [Example 26, 4-(Benzyloxy)-1-(5,11-dimethyl-5,6,7,8,9,10-hexahydro-7,10-iminocyclohept[b]indol-3-yl)pyridin-2(1H)-one hydrochloride]	9.7	121 to 128
CC(=O)N1C2CCC1c1c(n(C)c3cc(-n4ccc(OCc5ccccc5)cc4=O)ccc13)C2 (stereo not drawn) [Example 27, 1-(11-Acetyl-5-methyl-5,6,7,8,9,10-hexahydro-7,10-iminocyclohept[b]indol-3-yl)-4-(benzyloxy)pyridin-2(1H)-one]	131	91 to 96
CN1C2CCCC1c1c(n(C)c3cc(-n4ccc(OCc5ccccc5)cc4=O)ccc13)C2.Cl (stereo not drawn) [Example 31, 4-(Benzyloxy)-1-(5,12-dimethyl-6,7,8,9,10,11-hexahydro-7,11-imino-5H-cyclooct[b]indol-3-yl)pyridin-2(1H)-one hydrochloride]	14	161 to 180
Cl.Cn1c2c(c3ccc(-n4ccc(OCc5ccc(F)cn5)cc4=O)nc31)C1CCCC(C2)N1 (stereo not drawn) [Example 40, 4-((5-Fluoropyridin-2-yl)methoxy)-1-(11-methyl-5,6,7,8,9,10-hexahydro-5,9-imino-11H-cycloocta[4,5]pyrrolo[2,3-b]pyridin-2-yl)pyridin-2(1H)-one hydrochloride]	49	170 to 180
Cl.Cn1c2c(c3ccc(-n4ccc(OCc5ccccc5)cc4=O)nc31)C1CCCC(C2)N1 (stereo not drawn) [Example 41, 4-(Benzyloxy)-1-(11-methyl-5,6,7,8,9,10-hexahydro-5,9-imino-11H-cycloocta[4,5]pyrrolo[2,3-b]pyridin-2-yl)pyridin-2(1H)-one hydrochloride]	30	191 to 206

— patent US8629158B2, “Azabicycloalkane-indole and azabicycloalkane-pyrrolo-pyridine MCH-1 antagonists, methods of making, and use thereof” (Albany Molecular Research, Inc., priority 2009, dated 2014)
